Data reported in patent US20240182460A1, “ALLOSTERIC CHROMENONE INHIBITORS OF PHOSPHOINOSITIDE 3-KINASE (PI3K) FOR THE TREATMENT OF DISEASE” (PETRA PHARMA CORPORATION, priority 2022, published 2024).

Target: PI3Kα E545K (Homo sapiens, UniProt P42336, E545K)
Experiment: PI3Kα E545K mutant in vitro cell based assay, MDA-MB-361 cells
Set-up: MDA-MB-361 (ATCC-HTB-27) cell line (PI3Kα E545K); host or cells: MDA-MB-361
Details: MDA-MB-361 cell line, 0% FBS, no insulin, 3 hours treatment
Text: PI3K-Alpha Kinase (PI3Kα) Activity: Wild-Type PI3Kα, H1047R Mutant PI3Kα, and E545K Mutant PI3Kα In Vitro Cell Based Assays and Determination of IC50 Values for Inhibitors
The MDA-MB-453 (ATCC-HTB-131) cell line (PI3Kα H1047R) and MCF-7 (ATCC-HTB-22) cell line (PI3Kα E545K), MDA-MB-361 (ATCC-HTB-27) cell line (PI3Kα E545K), and SKBR3 (ATCC-HTB-30) cell line (wild type PI3Kα) were obtained from the American Type Culture Collection (Manassas, VA). MDA-MB-453 cells were maintained in Dulbecco's Modified Eagle Media (DMEM, Gibco 12430) supplemented with 10% Fetal Bovine Serum, heat inactivated (FBS HI, Gibco 10082), 1× non-essential amino acids (NEAA, Gibco 11140), 1 mM sodium pyruvate (Gibco 11360) and 1× Anti-Anti (Gibco 15240). MCF-7 cells were maintained in Minimum Essential Media (MEM) (Gibco 11095) supplemented with 10% Fetal Bovine Serum, heat inactivated (FBS HI, Gibco 10082), 1× non-essential amino acids (NEAA, Gibco 11140), 1 mM sodium pyruvate (Gibco 11360), 1× Anti-Anti (Gibco 15240) and 10 μg/mL human insulin (Sigma I 9278). MDA-MB-361 cells were maintained in Dulbecco's Modified Eagle Media (DMEM, Gibco 12430) supplemented with 20% Fetal Bovine Serum, heat inactivated (FBS HI, Gibco 10082), 1× non-essential amino acids (NEAA, Gibco 11140), 1 mM sodium pyruvate (Gibco 11360) and 1× Anti-Anti (Gibco 15240). SKBR3 cells were maintained in McCoy's 5A (Gibco 16600) supplemented with 10% Fetal Bovine Serum, heat inactivated (FBS HI, Gibco 10082), and 1× Anti-Anti (Gibco 15240). Cultures were maintained in a humidified incubator at 37° C. under 5% CO2/95% air.
For compound testing in 0% FBS, MDA-MB-453, MCF-7 and SKBR3 cells were seeded at a density of 1.5×10^4, 1.0×10^4, and 1.0×10^4 cells, respectively, per well in white 384-well plates in 20 μl of Minimum Essential Media (MEM) assay media with 1×NEAA, 1 mM sodium pyruvate, and 1 μg/mL human insulin (Sigma 19278) (Assay Medium); while MDA-MB-361 cells were seeded at a density of 1.5×10^4 per well in white 384-well plates in 20 μl Assay Medium without insulin. After plating, cells were allowed to attach overnight. Compounds dissolved in 10 mM stock solutions in DMSO were serially diluted 1:3 in DMSO to generate a 10-point dilution series and plated using an acoustic liquid handler system (Echo 550 Series Liquid Handler, Labcyte). A 5× intermediate compound dilution plate in MEM with 1×NEAA and 1 mM sodium pyruvate (150 μM starting compound concentration in 1.5% DMSO) was then prepared. Five μl of the intermediate serially diluted compounds were added to the cell plate to final concentrations ranging from […] in 0.3% DMSO. 0.3% DMSO alone was used to establish the maximum (MAX) signal and GDC-0032 at a final concentration of 1 μM was used as a reference compound for the minimum (MIN) signal. After 3 hours treatment, the medium was removed, and the cells were lysed in 10 μL of 1× SureFire Lysis buffer with shaking for 10 minutes at room temperature. The Acceptor Mix (Reaction Buffer 1+Reaction Buffer 2+Activation Buffer+SureFire Ultra Acceptor Beads) was prepared by diluting Activation buffer 25-fold in combined Reaction Buffer 1 and Reaction Buffer 2.
The Acceptor beads were diluted 50-fold in the combined Reaction Buffers. Five μL of Acceptor Mix was added to each well, the plate was sealed and covered with foil and incubated for 1 hour at room temperature. The Donor Mix (dilution buffer+SureFire Ultra Donor Beads) was prepared by diluting Donor Beads 50-fold in dilution buffer. Five μL of the Donor Mix was added to each well and the plate sealed and covered with foil and incubated for 1-2 hours at room temperature in the dark. The plates were read on a Neo2 plate reader instrument from Biotek using standard AlphaLisa settings.
Compounds were tested in duplicate and the % inhibition at each compound concentration was used to generate two dose response curves. One IC50 was generated using average % inhibition at each compound concentration. […]

Sequence of PI3Kα E545K (P42336 whole entry E545K): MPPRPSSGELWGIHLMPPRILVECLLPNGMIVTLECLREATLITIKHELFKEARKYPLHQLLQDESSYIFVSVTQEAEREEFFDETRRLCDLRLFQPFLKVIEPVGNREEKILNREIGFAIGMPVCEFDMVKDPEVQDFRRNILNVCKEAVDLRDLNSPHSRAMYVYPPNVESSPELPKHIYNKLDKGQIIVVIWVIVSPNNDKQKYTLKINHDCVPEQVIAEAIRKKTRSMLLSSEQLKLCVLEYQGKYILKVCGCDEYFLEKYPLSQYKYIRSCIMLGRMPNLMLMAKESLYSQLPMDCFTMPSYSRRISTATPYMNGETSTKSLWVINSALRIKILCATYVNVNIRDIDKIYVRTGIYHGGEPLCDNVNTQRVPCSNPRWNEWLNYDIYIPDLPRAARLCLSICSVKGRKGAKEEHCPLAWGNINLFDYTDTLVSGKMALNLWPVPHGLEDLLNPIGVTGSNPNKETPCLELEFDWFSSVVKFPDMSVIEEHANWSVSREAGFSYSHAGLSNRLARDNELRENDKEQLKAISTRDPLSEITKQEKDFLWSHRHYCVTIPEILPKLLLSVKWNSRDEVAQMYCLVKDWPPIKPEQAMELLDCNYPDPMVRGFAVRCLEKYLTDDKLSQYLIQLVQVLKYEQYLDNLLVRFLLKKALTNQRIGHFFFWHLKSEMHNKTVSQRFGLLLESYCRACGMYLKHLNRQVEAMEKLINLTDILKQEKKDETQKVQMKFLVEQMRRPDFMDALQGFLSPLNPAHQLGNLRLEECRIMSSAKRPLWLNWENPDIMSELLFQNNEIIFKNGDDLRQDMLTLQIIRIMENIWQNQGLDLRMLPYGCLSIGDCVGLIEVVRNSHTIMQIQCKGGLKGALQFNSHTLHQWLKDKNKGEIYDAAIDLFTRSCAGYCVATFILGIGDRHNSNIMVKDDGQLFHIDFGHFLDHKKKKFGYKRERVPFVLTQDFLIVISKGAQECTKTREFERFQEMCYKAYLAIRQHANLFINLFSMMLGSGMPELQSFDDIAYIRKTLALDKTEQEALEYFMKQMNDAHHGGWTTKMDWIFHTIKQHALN
Sequence of PI3Kα E545K (P27986 whole entry partner): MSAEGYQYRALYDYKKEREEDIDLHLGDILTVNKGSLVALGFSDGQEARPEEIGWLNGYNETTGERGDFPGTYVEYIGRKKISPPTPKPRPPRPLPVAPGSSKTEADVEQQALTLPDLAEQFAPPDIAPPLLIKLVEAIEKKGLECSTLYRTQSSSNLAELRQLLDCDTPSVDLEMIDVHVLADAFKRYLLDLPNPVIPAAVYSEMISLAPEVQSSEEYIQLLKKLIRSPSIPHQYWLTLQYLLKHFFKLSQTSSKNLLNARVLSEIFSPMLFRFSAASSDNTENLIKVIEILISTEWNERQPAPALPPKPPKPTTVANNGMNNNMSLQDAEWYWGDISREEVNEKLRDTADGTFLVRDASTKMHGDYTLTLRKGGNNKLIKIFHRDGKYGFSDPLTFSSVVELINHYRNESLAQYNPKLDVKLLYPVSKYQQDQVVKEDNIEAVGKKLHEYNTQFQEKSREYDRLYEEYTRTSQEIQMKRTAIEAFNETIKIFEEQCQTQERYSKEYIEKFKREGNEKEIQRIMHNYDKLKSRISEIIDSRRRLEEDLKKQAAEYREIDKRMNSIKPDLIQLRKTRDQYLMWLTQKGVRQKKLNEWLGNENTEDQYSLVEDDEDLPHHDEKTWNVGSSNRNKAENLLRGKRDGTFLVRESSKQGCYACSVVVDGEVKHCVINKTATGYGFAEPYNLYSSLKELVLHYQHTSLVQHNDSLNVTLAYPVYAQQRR

| IC50 [nM] | SMILES |
| --- | --- |
| < 500 | Cc1cc([C@@H](C)Oc2ccc(Cl)nc2C(N)=O)c2oc(-c3cnn(C(F)F)c3)c(C)c(=O)c2c1 [Example 58A, 6-Chloro-3-[(1R)-1-[2-[1-(difluoromethyl)pyrazol-4-yl]-3,6-dimethyl-4-oxo-chromen-8-yl]ethoxy]pyridine-2-carboxamide] |
| < 500 | Cc1cc([C@@H](C)Oc2ccc(Cl)nc2S(N)(=O)=O)c2oc(-c3cnc(OC(C)C)nc3)c(C)c(=O)c2c1 [Example 23C, 6-Chloro-3-[(1R)-1-[2-(2-isopropoxypyrimidin-5-yl)-3,6-dimethyl-4-oxo-chromen-8-yl]ethoxy]pyridine-2-sulfonamide] |
| < 500 | Cc1cc([C@@H](C)Oc2ccc(Cl)nc2C(N)=O)c2oc(-c3ccc4nn(C)c(C)c4c3)c(C)c(=O)c2c1 [Example 50C, 6-Chloro-3-[(1R)-1-[2-(2,3-dimethylindazol-5-yl)-3,6-dimethyl-4-oxo-chromen-8-yl]ethoxy]pyridine-2-carboxamide] |
| < 500 | Cc1cc([C@@H](C)Oc2ccc(Cl)nc2C(N)=O)c2oc(-c3cnn(C4CC4)c3)c(C)c(=O)c2c1 [Example 51A, 6-Chloro-3-[(1R)-1-[2-(1-cyclopropylpyrazol-4-yl)-3,6-dimethyl-4-oxo-chromen-8-yl]ethoxy]pyridine-2-carboxamide] |
| < 500 | Cc1cc([C@@H](C)Oc2ccc(Cl)nc2C(N)=O)c2oc(-c3ccc4occc4c3)c(C)c(=O)c2c1 [Example 61C, 3-[(1R)-1-[2-(Benzofuran-5-yl)-3,6-dimethyl-4-oxo-chromen-8-yl]ethoxy]-6-chloro-pyridine-2-carboxamide] |
| < 500 | Cc1cc([C@@H](C)Oc2ccc(Cl)nc2C(N)=O)c2oc(-c3ccn4nc(C)cc4c3)c(C)c(=O)c2c1 [Example 76C, 6-Chloro-3-[(1R)-1-[3,6-dimethyl-2-(2-methylpyrazol[1,5-a]pyridin-5-yl)-4-oxo-chromen-8-yl]ethoxy]pyridine-2-carboxamide] |
| < 500 | Cc1cc([C@@H](C)Oc2ccc(Cl)nc2S(N)(=O)=O)c2oc(-c3cnn(C)c3C)c(C)c(=O)c2c1 [Example 18C, 6-Chloro-3-[(1R)-1-[2-(1,5-dimethylpyrazol-4-yl)-3,6-dimethyl-4-oxo-chromen-8-yl]ethoxy]pyridine-2-sulfonamide] |
| < 500 | Cc1cc([C@@H](C)Oc2ccc(Cl)cc2S(N)(=O)=O)c2oc(-c3cnc4ccoc4c3)c(C)c(=O)c2c1 [Example 100C, 5-Chloro-2-[(1R)-1-(2-furo[3,2-b]pyridin-6-yl-3,6-dimethyl-4-oxo-chromen-8-yl)ethoxy]benzenesulfonamide] |
| < 500 | Cc1cc([C@@H](C)Oc2ccc(Cl)nc2S(N)(=O)=O)c2oc(-c3cnn(CC4(C#N)CC4)c3)c(C)c(=O)c2c1 [Example 124C, 6-Chloro-3-[(1R)-1-[2-[1-[(1-cyanocyclopropyl)methyl]pyrazol-4-yl]-3,6-dimethyl-4-oxo-chromen-8-yl]ethoxy]pyridine-2-sulfonamide] |
| < 500 | Cc1cc([C@@H](C)Oc2ccc(Cl)nc2C)c2oc(-c3cnn(CCO)c3)c(C)c(=O)c2c1 [Example 72C, 8-[(1R)-1-[(6-Chloro-2-methyl-3-pyridyl)oxy]ethyl]-2-[1-(2-hydroxyethyl)pyrazol-4-yl]-3,6-dimethyl-chromen-4-one] |
| < 500 | Cc1cc([C@@H](C)Oc2ccc(F)cc2S(N)(=O)=O)c2oc(-c3cnc4ccoc4c3)c(C)c(=O)c2c1 [Example 106C, 5-Fluoro-2-[(1R)-1-(2-furo[3,2-b]pyridin-6-yl-3,6-dimethyl-4-oxo-chromen-8-yl)ethoxy]benzenesulfonamide] |
| < 500 | Cc1cc([C@@H](C)Oc2ccc(Cl)nc2C(N)=O)c2oc(-c3ccc4cncn4c3)c(C)c(=O)c2c1 [Example 43C, 6-Chloro-3-[(1R)-1-(2-imidazo[1,5-a]pyridin-6-yl-3,6-dimethyl-4-oxo-chromen-8-yl)ethoxy]pyridine-2-carboxamide] |
| < 500 | Cc1cc([C@@H](C)Oc2ccc(Cl)nc2C(N)=O)c2oc(-c3ccc4c(c3)OCCN4C)c(C)c(=O)c2c1 [Example 104A, 6-Chloro-3-[(1R)-1-[3,6-dimethyl-2-(4-methyl-2,3-dihydro-1,4-benzoxazin-7-yl)-4-oxo-chromen-8-yl]ethoxy]pyridine-2-carboxamide] |
| < 500 | Cc1cc([C@@H](C)Oc2ccc(Cl)nc2S(N)(=O)=O)c2oc(-c3cnn(C[C@H](C)O)c3)c(C)c(=O)c2c1 [Example 7B, 6-Chloro-3-[(1R)-1-[2-[1-[(2S)-2-hydroxypropyl]pyrazol-4-yl]-3,6-dimethyl-4-oxo-chromen-8-yl]ethoxy]pyridine-2-sulfonamide] |
| < 500 | Cc1cc([C@@H](C)Oc2ccccc2S(N)(=O)=O)c2oc(-c3ccccc3)c(C)c(=O)c2c1 [Example 102C, 2-[(1R)-1-(3,6-Dimethyl-4-oxo-2-phenyl-chromen-8-yl)ethoxy]benzenesulfonamide] |
| < 500 | Cc1cc([C@@H](C)Oc2ccc(Cl)nc2NC(=O)CO)c2oc(-c3cnn(C)c3)c(C)c(=O)c2c1 [Example 27B, N-[6-Chloro-3-[(1R)-1-[3,6-dimethyl-2-(1-methylpyrazol-4-yl)-4-oxo-chromen-8-yl]ethoxy]-2-pyridyl]-2-hydroxy-acetamide] |
| < 500 | Cc1cc([C@@H](C)Oc2ccc(Cl)nc2S(N)(=O)=O)c2oc(-c3cnn(C[C@]45C[C@H](CO4)C5)c3)c(C)c(=O)c2c1 [Example 118C, 6-Chloro-3-[(1R)-1-[3,6-dimethyl-2-[1-(2-oxabicyclo[2.1.1]hexan-1-ylmethyl)pyrazol-4-yl]-4-oxo-chromen-8-yl]ethoxy]pyridine-2-sulfonamide] |
| < 500 | Cc1cc([C@@H](C)Oc2ccc(Cl)nc2C(N)=O)c2oc(-c3cnc4c(c3)OCO4)c(C)c(=O)c2c1 [Example 59A, 6-Chloro-3-[(1R)-1-[2-([1,3]dioxolo[4,5-b]pyridin-6-yl)-3,6-dimethyl-4-oxo-chromen-8-yl]ethoxy]pyridine-2-carboxamide] |
| < 500 | Cc1cc([C@@H](C)Oc2ccc(Cl)nc2C(N)=O)c2oc(-c3ccc4nn(C)nc4c3)c(C)c(=O)c2c1 [Example 50A, 6-Chloro-3-[(1R)-1-[3,6-dimethyl-2-(2-methylbenzotriazol-5-yl)-4-oxo-chromen-8-yl]ethoxy]pyridine-2-carboxamide] |
| < 500 | Cc1cc([C@@H](C)Oc2ccc(Cl)nc2S(N)(=O)=O)c2oc(-c3cnn(C)c3)c(C)c(=O)c2c1 [Example 14A, 6-Chloro-3-[(1R)-1-[3,6-dimethyl-2-(1-methylpyrazol-4-yl)-4-oxo-chromen-8-yl]ethoxy]pyridine-2-sulfonamide] |
| < 500 | CCc1nc2ccc(-c3oc4c([C@@H](C)Oc5ccc(Cl)nc5C(N)=O)cc(C)cc4c(=O)c3C)cc2s1 [Example 83C, 6-Chloro-3-[(1R)-1-[2-(2-ethyl-1,3-benzothiazol-6-yl)-3,6-dimethyl-4-oxo-chromen-8-yl]ethoxy]pyridine-2-carboxamide] |
| < 500 | Cc1cc([C@@H](C)Oc2ccc(Cl)nc2S(N)(=O)=O)c2oc(-c3cnc4c(c3)OCCO4)c(C)c(=O)c2c1 [Example 6B] |
